{"source": "paper PMC5007978", "about": "“A chemical with proven clinical safety rescues Down-syndrome-related phenotypes in through DYRK1A inhibition” (Disease Models & Mechanisms, 2016)", "key": {"DYRK1A [1]": {"system": "DYRK1A", "assay": "Tau phosphorylation (T212) in the hippocampus of DYRK1A transgenic mouse after oral administration", "type": "in vivo", "experimental": "This mouse model has 50% higher expression of DYRK1A compared with a normal mouse, and increased Tau phosphorylation at T212 in the hippocampus has been well documented ([Ryoo et al., 2007]). Indeed, this phenomenon was also confirmed in our experiment.\nFig. 7. […] (A) Hippocampuses from normal and DYRK1A-overexpressing C57BL/6 mice (n=5 for each) were harvested, and the phosphorylation of Tau was analyzed by western blotting with anti-phosphorylated-Tau (at residue T212; p-Tau) and anti-Tau antibodies. α-Tubulin was also analyzed as a loading control. (B) The phosphorylated and total Tau proteins in panel A were quantified, and the mean amount of each protein was calculated. […] Total cell lysates were prepared and subjected to western blotting with the indicated antibodies. α-Tubulin was also analyzed as a loading control. (D) The phosphorylated and total Tau proteins in panel C were quantified, and the mean amount of each protein across the animals was calculated. Relative ratios of phosphorylated Tau to total Tau were calculated by setting the value from DYRK1A mice that had been treated with DMSO as 100%. […]\nDYRK1A transgenic mice with three copies of the human DYRK1A gene were maintained as described previously ([Ahn et al., 2006]). […] The protein concentration was determined using the Bradford protein assay (Bio-Rad). […]"}, "DYRK1A [2]": {"molecular_target": "T1, DYRK1A (Homo sapiens, UniProt Q13627)", "assay": "DYRK1A-mediated Tau (T212) phosphorylation in transfected 293T cells, western blot", "type": "cell-based", "set-up": "expressed in transfected cells; host or cells: 293T cells"}, "[3]": {"set-up": "method as in Senhwa Biosciences (2014)", "conditions": "phase I clinical trials as cancer therapeutic; ref Senhwa Biosciences (2014); cited from earlier work"}, "[4]": {"system": "calcineurin-NFAT signaling", "assay": "NFAT-RE promoter luciferase reporter assay (NRE-Luc) in 293T cells", "type": "cell-based", "conditions": "IM and PMA (10 nM), 1, 3 and 10 μM", "experimental": "Fig. 5. […] Firefly luciferase activities were measured using One-Glo reagents. Luciferase activity in the sample with reporter plasmid alone was set to 1, and the relative luciferase activities were calculated. Means±s.d. were determined from two independent experiments.\nTreatment with IM and phorbol 12-myristate 13-acetate (PMA) induced a dramatic increase in luciferase activity (∼20 fold) as a result of the nuclear translocation of NFATc1 and the subsequent transcriptional activation (Fig. 5B). In this situation, the overexpression of DYRK1A suppressed the stimulatory effect of IM and PMA by 75%, resulting in a 4.5-fold increase in luciferase activity compared with that of the control (Fig. 5B).\nThe firefly luciferase reporter assay was performed using a One-Glo Assay System (Promega) according to the manufacturer's instructions. The transcriptional activity of NFATc1 in 293T cells was measured with a reporter vector (pGL4.30 luc2P/NFAT-RE/Hygro) (Promega) that expresses the firefly luciferase gene under the control of an NFAT-RE promoter. 293T cells were transfected with the DYRK1A-expressing plasmid and reporter plasmid. On the next day, cells were treated with IM (2.5 μM) and phorbol-12-myristate-13-acetate (10 nM) along with the indicated amounts of inhibitors. Cells were further incubated for 8 h and then cell lysates were harvested to measure luciferase activity."}, "DYRK1A [5]": {"molecular_target": "T1, DYRK1A", "assay": "DYRK1A kinase activity at various ATP and CX-4945 concentrations (Lineweaver-Burk)", "type": "biochemical", "set-up": "purchased Life Technologies (Kinase Profiler service)", "conditions": "ATP 50, 75, 100, 150 and 200 μM; Lineweaver-Burk plots", "experimental": "Fig. 2. […] Data are mean±s.d. […] Hydrogen bonds are denoted as dotted black lines, and oxygen, nitrogen and chlorine atoms are indicated as red, blue and green sticks, respectively.\nKinase assays were conducted using the Kinase Profiler services offered by Life Technologies, which utilizes a fluorescence-based immunoassay. Detailed protocols can be found at http://www.lifetechnologies.com/kinaseprofiling. […] All experiments were performed twice."}}}
{"smiles": "O=C(O)c1ccc2c(c1)nc(Nc1cccc(Cl)c1)c1ccncc12", "note": "[CX-4945]", "values": [{"measurement": "phosphorylation of Tau (T212) in hippocampus", "setting": "DYRK1A [1]; DYRK1A-overexpressing C57BL/6 mice, 75 mg/kg oral, 30 min", "value": "remarkably decreased"}, {"measurement": "blood-brain barrier penetration", "setting": "DYRK1A [1]; inferred from hippocampal Tau phosphorylation after oral 75 mg/kg", "value": "efficiently penetrates the blood-brain barrier"}, {"measurement": "inhibition of Tau phosphorylation at 0.1 μM", "setting": "DYRK1A [2]; 0.1 μM", "value": "Moderate inhibition"}, {"measurement": "inhibition of Tau phosphorylation at 1 μM", "setting": "DYRK1A [2]; 1 μM", "value": "almost complete inhibition"}, {"measurement": "clinical safety", "setting": "[3]", "value": "safety has been already proven"}, {"measurement": "NFATc1-dependent transcriptional activation (NRE-Luc) suppressed by DYRK1A overexpression", "setting": "[4]", "value": "reversed the effect of DYRK1A overexpression in a dose-dependent manner"}, {"measurement": "mode of DYRK1A inhibition", "setting": "DYRK1A [5]", "value": "ATP-competitive manner"}]}
